Measurements as given in patent US20230085307A1, “PYRIDAZINONE COMPOUND AND HERBICIDE” (NISSAN CHEMICAL CORPORATION, priority 2019, published 2023).

What was measured:
barnyard grass [1] = test: Test Example 3: herbicidal effect by foliage application, Wagner pot (Table 18, symbol H); assay type: in vivo, barnyard grass (Echinochloa crus-galli); conditions: 320 g/ha
Procedure, shortened: (§1)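 Plants were sown in alluvial soil held under 0.1–0.5 cm standing water and grown 14 days in a greenhouse at 25–30 °C. An emulsifiable formulation, water-diluted to the set dose, was then sprayed onto the foliage, and effects were scored three weeks later using previously defined criteria.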

Chinese sprangletop = test: Test Example 3: herbicidal effect by foliage application, Wagner pot (Table 18, symbol D); assay type: in vivo, chinese sprangletop (Leptochloa chinensis); conditions: 320 g/ha
Procedure, shortened: as §1

rice flat sedge = test: Test Example 3: herbicidal effect by foliage application, Wagner pot (Table 18, symbol E); assay type: in vivo, rice flat sedge (Cyperus iria); conditions: 320 g/ha
Procedure, shortened: as §1

southern crabgrass [2] = test: Test Example 4: herbicidal effect by soil treatment (Table 19, symbol F); assay type: in vivo, southern crabgrass (Digitaria ciliaris)
From the text: (§2) [Test Example 4] Herbicidal Effect Test by Soil Treatment
(§3) Sterilized diluvial soil was placed in a plastic box having a length of 21 cm, a width of 13 cm, and a depth of 7 cm. The seeds of each of southern crabgrass, green foxtail, barnyard grass, wild oat, blackgrass, Italian ryegrass, windgrass, velvetleaf, redroot pigweed, lambsquarters, chickweed, false cleavers, persian speedwell, corn, soybean, rice, wheat, beet, and rapeseed were sowed in a spot-like manner and covered with the soil having a thickness of about 1.5 cm. Subsequently, the emulsion agent of the compound of the present invention prepared according to Formulation Example 2 was diluted with water so as to achieve a predetermined herbicide amount, and the diluted emulsion agent was uniformly applied to the surface of the soil with a small-sized spray. The plastic box was placed in a greenhouse at 25° C. to 30° C. for growth of the plants. Three weeks after the herbicide application, the effect of the herbicide on each plant was evaluated according to the criteria of Test Example 1.

green foxtail [3] = test: Test Example 4: herbicidal effect by soil treatment (Table 19, symbol G); assay type: in vivo, green foxtail (Setaria viridis)
Procedure, shortened: (§4)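 In this soil treatment, the formulated compound reached the seeds only through the soil: seeds were buried about 1.5 cm deep in sterilized diluvial soil, then the diluted emulsion was sprayed over the surface. After three weeks at 25° C. to 30° C. in a greenhouse, effects were graded on criteria from an earlier test.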

barnyard grass [4] = test: Test Example 4: herbicidal effect by soil treatment (Table 19, symbol H); assay type: in vivo, barnyard grass (Echinochloa crus-galli)
From the text: as §2, §3

wild oat [5] = test: Test Example 4: herbicidal effect by soil treatment (Table 19, symbol I); assay type: in vivo, wild oat (Avena fatua)
From the text: as §2, §3

blackgrass [6] = test: Test Example 4: herbicidal effect by soil treatment (Table 19, symbol J); assay type: in vivo, blackgrass (Alopecurus myosuroides)
From the text: as §2, §3

Italian ryegrass [7] = test: Test Example 4: herbicidal effect by soil treatment (Table 19, symbol K); assay type: in vivo, Italian ryegrass (Lolium multiflorum)
From the text: as §2, §3

windgrass [8] = test: Test Example 4: herbicidal effect by soil treatment (Table 19, symbol L); assay type: in vivo, windgrass (Apera spica-venti)
From the text: as §2, §3

velvetleaf [9] = test: Test Example 4: herbicidal effect by soil treatment (Table 19, symbol M); assay type: in vivo, velvetleaf (Abutilon theophrasti)
Procedure, shortened: as §4

redroot pigweed [10] = test: Test Example 4: herbicidal effect by soil treatment (Table 19, symbol N); assay type: in vivo, redroot pigweed (Amaranthus retroflexus)
Procedure, shortened: as §4

lambsquarters [11] = test: Test Example 4: herbicidal effect by soil treatment (Table 19, symbol O); assay type: in vivo, lambsquarters (Chenopodium album)
From the text: as §2, §3

chickweed [12] = test: Test Example 4: herbicidal effect by soil treatment (Table 19, symbol P); assay type: in vivo, common chickweed (Stellaria media)
From the text: as §2, §3

southern crabgrass [13] = test: Test Example 5: herbicidal effect by foliage application, plastic box (Table 20, symbol F); assay type: in vivo, southern crabgrass (Digitaria ciliaris); conditions: foliage application, 320 g/ha
Procedure, shortened: (§5)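 Plants were sown into sterilized diluvial soil under about 1.5 cm cover and kept in a greenhouse at 25° C. to 30° C. Fourteen days on, foliage received an even spray of the diluted emulsion. Herbicidal or crop effect was judged three weeks afterwards.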

green foxtail [14] = test: Test Example 5: herbicidal effect by foliage application, plastic box (Table 20, symbol G); assay type: in vivo, green foxtail (Setaria viridis); conditions: foliage application, 320 g/ha
Procedure, shortened: as §5

barnyard grass [15] = test: Test Example 5: herbicidal effect by foliage application, plastic box (Table 20, symbol H); assay type: in vivo, barnyard grass (Echinochloa crus-galli); conditions: foliage application, 320 g/ha
Procedure, shortened: as §5

wild oat [16] = test: Test Example 5: herbicidal effect by foliage application, plastic box (Table 20, symbol I); assay type: in vivo, wild oat (Avena fatua); conditions: foliage application, 320 g/ha
Procedure, shortened: as §5

blackgrass [17] = test: Test Example 5: herbicidal effect by foliage application, plastic box (Table 20, symbol J); assay type: in vivo, blackgrass (Alopecurus myosuroides); conditions: foliage application, 320 g/ha
Procedure, shortened: as §5

Italian ryegrass [18] = test: Test Example 5: herbicidal effect by foliage application, plastic box (Table 20, symbol K); assay type: in vivo, Italian ryegrass (Lolium multiflorum); conditions: foliage application, 320 g/ha
Procedure, shortened: as §5

windgrass [19] = test: Test Example 5: herbicidal effect by foliage application, plastic box (Table 20, symbol L); assay type: in vivo, windgrass (Apera spica-venti); conditions: foliage application, 320 g/ha
Procedure, shortened: as §5

velvetleaf [20] = test: Test Example 5: herbicidal effect by foliage application, plastic box (Table 20, symbol M); assay type: in vivo, velvetleaf (Abutilon theophrasti); conditions: foliage application, 320 g/ha
Procedure, shortened: as §5

lambsquarters [21] = test: Test Example 5: herbicidal effect by foliage application, plastic box (Table 20, symbol O); assay type: in vivo, lambsquarters (Chenopodium album); conditions: foliage application, 320 g/ha
Procedure, shortened: as §5

persian speedwell = test: Test Example 5: herbicidal effect by foliage application, plastic box (Table 20, symbol R); assay type: in vivo, Persian speedwell (Veronica persica); conditions: foliage application, 320 g/ha
Procedure, shortened: as §5

redroot pigweed [22] = test: Test Example 5: herbicidal effect by foliage application, plastic box (Table 20, symbol N); assay type: in vivo, redroot pigweed (Amaranthus retroflexus); conditions: foliage application, 320 g/ha, three weeks after application
Procedure, shortened: as §5

chickweed [23] = test: Test Example 5: herbicidal effect by foliage application, plastic box (Table 20, symbol P); assay type: in vivo, common chickweed (Stellaria media); conditions: foliage application, 320 g/ha, three weeks after application
Procedure, shortened: as §5

[24] = amount of applied herbicide 320 g/ha

Cc1nn(C)c(=O)c(-c2c(-c3ccc(CSC(C)C)cc3)sc3ccccc23)c1O [1-243]
herbicidal effect on H (barnyard grass), rating 0-5 (barnyard grass [1]): 5 (Herbicidal rate of 90% or more (almost completely withered))
herbicidal effect on D (Chinese sprangletop), rating 0-5 (Chinese sprangletop): 4 (Herbicidal rate of 70% or more and less than 90%)
herbicidal effect on E (rice flat sedge), rating 0-5 (rice flat sedge): 4 (Herbicidal rate of 70% or more and less than 90%)
F: southern crabgrass, herbicidal effect rating (southern crabgrass [2]; AAH 320 g/ha): 0 (Herbicidal rate of 5% or less (almost no effect))
G: green foxtail, herbicidal effect rating (green foxtail [3]; AAH 320 g/ha): 0 (Herbicidal rate of 5% or less (almost no effect))
H: barnyard grass, herbicidal effect rating (barnyard grass [4]; AAH 320 g/ha): 0 (Herbicidal rate of 5% or less (almost no effect))
I: wild oat, herbicidal effect rating (wild oat [5]; AAH 320 g/ha): 0 (Herbicidal rate of 5% or less (almost no effect))
J: blackgrass, herbicidal effect rating (blackgrass [6]; AAH 320 g/ha): 0 (Herbicidal rate of 5% or less (almost no effect))
K: Italian ryegrass, herbicidal effect rating (Italian ryegrass [7]; AAH 320 g/ha): 0 (Herbicidal rate of 5% or less (almost no effect))
L: windgrass, herbicidal effect rating (windgrass [8]; AAH 320 g/ha): 0 (Herbicidal rate of 5% or less (almost no effect))
M: velvetleaf, herbicidal effect rating (velvetleaf [9]; AAH 320 g/ha): 1 (Herbicidal rate of 5% or more and less than 20%)
N: redroot pigweed, herbicidal effect rating (redroot pigweed [10]; AAH 320 g/ha): 4 (Herbicidal rate of 70% or more and less than 90%)
O: lambsquarters, herbicidal effect rating (lambsquarters [11]; AAH 320 g/ha): 3 (Herbicidal rate of 40% or more and less than 70%)
P: chickweed, herbicidal effect rating (chickweed [12]; AAH 320 g/ha): 0 (Herbicidal rate of 5% or less (almost no effect))
effect on southern crabgrass (F) (southern crabgrass [13]; 3 weeks after application): 3 (Herbicidal rate of 40% or more and less than 70%)
effect on green foxtail (G) (green foxtail [14]; 3 weeks after application): 4 (Herbicidal rate of 70% or more and less than 90%)
effect on barnyard grass (H) (barnyard grass [15]; 3 weeks after application): 4 (Herbicidal rate of 70% or more and less than 90%)
effect on wild oat (I) (wild oat [16]; 3 weeks after application): 2 (Herbicidal rate of 20% or more and less than 40%)
effect on blackgrass (J) (blackgrass [17]; 3 weeks after application): 2 (Herbicidal rate of 20% or more and less than 40%)
effect on Italian ryegrass (K) (Italian ryegrass [18]; 3 weeks after application): 3 (Herbicidal rate of 40% or more and less than 70%)
effect on windgrass (L) (windgrass [19]; 3 weeks after application): 0 (Herbicidal rate of 5% or less (almost no effect))
effect on velvetleaf (M) (velvetleaf [20]; 3 weeks after application): 5 (Herbicidal rate of 90% or more (almost completely withered))
effect on lambsquarters (O) (lambsquarters [21]; 3 weeks after application): 4 (Herbicidal rate of 70% or more and less than 90%)
effect on persian speedwell (R) (persian speedwell; 3 weeks after application): 5 (Herbicidal rate of 90% or more (almost completely withered))

COc1ccccc1-c1sc2cc(OCCS(C)(=O)=O)ccc2c1-c1c(O)c(C)nn(C)c1=O [3-127]
herbicidal effect on barnyard grass (H) (barnyard grass [1]): 4 (Herbicidal rate of 70% or more and less than 90%)
herbicidal effect on Chinese sprangletop (D) (Chinese sprangletop): 3 (Herbicidal rate of 40% or more and less than 70%)
herbicidal effect on rice flat sedge (E) (rice flat sedge): 5 (Herbicidal rate of 90% or more (almost completely withered))
F: southern crabgrass, herbicidal effect grade (southern crabgrass [2]; [24]): 0 (Herbicidal rate of 5% or less (almost no effect))
G: green foxtail, herbicidal effect grade (green foxtail [3]; [24]): 0 (Herbicidal rate of 5% or less (almost no effect))
H: barnyard grass, herbicidal effect grade (barnyard grass [4]; [24]): 0 (Herbicidal rate of 5% or less (almost no effect))
I: wild oat, herbicidal effect grade (wild oat [5]; [24]): 0 (Herbicidal rate of 5% or less (almost no effect))
J: blackgrass, herbicidal effect grade (blackgrass [6]; [24]): 3 (Herbicidal rate of 40% or more and less than 70%)
K: Italian ryegrass, herbicidal effect grade (Italian ryegrass [7]; [24]): 4 (Herbicidal rate of 70% or more and less than 90%)
L: windgrass, herbicidal effect grade (windgrass [8]; [24]): 5 (Herbicidal rate of 90% or more (almost completely withered))
M: velvetleaf, herbicidal effect grade (velvetleaf [9]; [24]): 0 (Herbicidal rate of 5% or less (almost no effect))
N: redroot pigweed, herbicidal effect grade (redroot pigweed [10]; [24]): 0 (Herbicidal rate of 5% or less (almost no effect))
O: lambsquarters, herbicidal effect grade (lambsquarters [11]; [24]): 0 (Herbicidal rate of 5% or less (almost no effect))
P: chickweed, herbicidal effect grade (chickweed [12]; [24]): 1 (Herbicidal rate of 5% or more and less than 20%)
F: southern crabgrass, herbicidal effect grade (southern crabgrass [13]; three weeks after application): 5 (Herbicidal rate of 90% or more (almost completely withered))
G: green foxtail, herbicidal effect grade (green foxtail [14]; three weeks after application): 5 (Herbicidal rate of 90% or more (almost completely withered))
H: barnyard grass, herbicidal effect grade (barnyard grass [15]; three weeks after application): 3 (Herbicidal rate of 40% or more and less than 70%)
I: wild oat, herbicidal effect grade (wild oat [16]; three weeks after application): 4 (Herbicidal rate of 70% or more and less than 90%)
J: blackgrass, herbicidal effect grade (blackgrass [17]; three weeks after application): 5 (Herbicidal rate of 90% or more (almost completely withered))
K: Italian ryegrass, herbicidal effect grade (Italian ryegrass [18]; three weeks after application): 4 (Herbicidal rate of 70% or more and less than 90%)
L: windgrass, herbicidal effect grade (windgrass [19]; three weeks after application): 5 (Herbicidal rate of 90% or more (almost completely withered))
M: velvetleaf, herbicidal effect grade (velvetleaf [20]; three weeks after application): 5 (Herbicidal rate of 90% or more (almost completely withered))
N: redroot pigweed, herbicidal effect grade (redroot pigweed [22]): 5 (Herbicidal rate of 90% or more (almost completely withered))
O: lambsquarters, herbicidal effect grade (lambsquarters [21]; three weeks after application): 4 (Herbicidal rate of 70% or more and less than 90%)
P: chickweed, herbicidal effect grade (chickweed [23]): 5 (Herbicidal rate of 90% or more (almost completely withered))
R: persian speedwell, herbicidal effect grade (persian speedwell; three weeks after application): 5 (Herbicidal rate of 90% or more (almost completely withered))
